Measured values taken from patent publication US11787819B2, “Crystalline salt of a multi-tyrosine kinase inhibitor, method of preparation, and use thereof” (Mirati Therapeutics, Inc., priority 2021, dated 2023).

Columns and labels:
[1] = Critical water activity slurries in organic solvent/water (XRPD); type: physicochemical; settings: Acetone/H2O 98/2, 1 week, water activity 0.35
Procedure: An evaluation of the physical stability of Malate Form A under solvent-mediated conditions and assessment of the potential competition between solvate and hydrate formation were conducted by slurrying Malate Form A in various organic solvent/water systems (Table 3C).
An acetone/water system was selected for investigation of the stability at water activities between 0.4 and 0.9. Aqueous ACN, Dioxane, DMF, DMSO, and NMP were also investigated. A mixture of Malate Form A/Malate Material H was primarily used as the starting material. Samples of Malate Form A were combined and utilized as the starting material in a single experiment (acetone/water at low water activity).

[2] = Pharmacokinetics in beagle dogs, oral capsule and IV solution; type: in vivo
Procedure: Centrifugation began within 1 hour of collection. Plasma was placed into 96-well tubes with barcode labels. Plasma was maintained on dry ice prior to storage at approximately −70° C.

[3] = Long term stability studies (related impurities by HPLC); type: physicochemical
Procedure: Long term stability studies for Compound 1 Malate Form A were conducted at 2-8° C. and 25° C./60% RH. For each test interval, samples are packaged into double polyethylene bags, individually zip tied and stored in 30 mL white screw cap HDPE bottles.

[4] = Dynamic vapor sorption (DVS); type: physicochemical; settings: 25° C.
Procedure: Moisture sorption/desorption data were collected using a Surface Measurement System (SMS) DVS Intrinsic Instrument according to the manufacturer's instructions. Samples were not dried prior to analysis. Sorption/desorption data were collected over a range from 5% to 95% relative humidity (RH) at 10% RH increments under a nitrogen gas purge. The equilibrium criterion used for analysis was less than 0.0100% weight change in 5 min with a maximum equilibration time of three hours. Data were not corrected for initial moisture content of the samples.
The sample was recovered after completion of the isotherm and re-analyzed by XRPD
Sorption isotherms of Compound 1 Malate Form A were obtained using a SMS DVS Intrinsic moisture sorption analyzer, controlled by DVS Intrinsic Control software. The sample temperature was maintained at 25° C. by the instrument controls. The humidity was controlled by mixing streams of dry and wet nitrogen, with a total flow rate of 200 mL/min. The relative humidity was measured by a calibrated Rotronic probe (dynamic range of 1.0-100% RH), located near the sample. The weight change, (mass relaxation) of the sample as a function of % RH was constantly monitored by a microbalance (accuracy ±0.005 mg).
Briefly, Malate Form A was placed in a tared mesh stainless steel basket under ambient conditions. The sample was loaded and unloaded at 40% RH and 25° C. (typical room conditions) and allowed to equilibrate to 5% RH. A moisture sorption isotherm was performed as outlined below (1 scan per complete cycle). The standard isotherm was performed at 25° C. at 10% RH intervals over a 5-95% RH range. Data analysis was carried out within Microsoft Excel using the DVS Analysis Suite.

[5] = Heat and elevated temperature/relative humidity stress (XRPD); type: physicochemical; settings: heating at or above 40° C. (7 days at 40° C. and 80° C.; at or above 120° C. for ~1 hour)
Procedure: Heat and elevated temperature/RH stresses were designed to evaluate the physical stability of Compound 1 Malate Form A at elevated temperature. A mixture of Compound 1 Malate Form A/Malate Material H was utilized for testing. Experiments were conducted by heating solids of the test material at 40, 80, 120, and 140-145° C. Solids were also subjected to a combination of elevated temperature and RH, i.e. 40° C./75% RH and 30° C./60% RH (Table 3B).

[6] = Clinical trials, salt dosed in patients; type: in vivo, human
[7] = Karl Fischer water content; type: physicochemical
Procedure: Coulometric Karl Fischer analysis for water determination was performed using a Mettler Toledo DL39 Karl Fischer titrator with a Stromboli oven attachment. Prior to analyses samples tested were exposed to specified ambient relative humidity for ˜2 hours. Two replicates of the sample were placed into the drying oven set at a temperature of approximately 140 or 145° C. The drying oven was purged into the titrator vessel with dry nitrogen. The samples were then titrated by means of a generator electrode, which produces iodine by electrochemical oxidation: 2I−→I2+2e−. A NIST-traceable water standard (Hydranal Water Standard 10.0) was analyzed to check the operation of the coulometer.
(§1) Experiments were carried out by exposing solids of the test materials to various RH conditions. Preparation of specimens for XRPD analyses of post-stress solids was conducted with minimal exposure to ambient conditions. For selected samples, Karl Fischer analysis was done concurrently with XRPD testing. These samples therefore were kept in a glove bag equilibrated at the RH near to the exposure conditions, and the XRPD specimens were prepared inside the glove bag.
(§2) To investigate this further, stress experiments were conducted at 30% and 93% RH with minimal exposure to ambient RH so that XRPD and water content analyses could be considered representative of the stress conditions. […] In these experiments, a mixture of Malate Form A/Malate Material H was initially subjected to 93% RH for ˜8 days. It was then immediately analyzed by XRPD and Karl Fischer. The same sample was then re-exposed to 30% RH.

[8] = Long term stability studies (related impurities by HPLC); type: physicochemical; settings: 6 months storage at 40° C./75% RH, 12 months storage at 40° C./75% RH
[9] = Critical relative humidity stress (XRPD of post-stress solids); type: physicochemical; settings: RT
Procedure: Critical relative humidity (RH) experiments were designed to confirm the physical stability RH range for Malate Form A in the solid-state. […] The water content of Malate Form A and Material D were characterized by Karl Fischer analysis. (See Table 3A(2)).
as §1
A mixture of Malate Form A/Malate Material H was subjected to 0%, 11%, 23%, 69%, and 93% RH, each for approximately 5 days. It should be noted that the stress RH was not maintained during the XRPD specimen preparation and analyses. Therefore, solids from all these stress conditions were briefly exposed to ambient RH estimated as ˜21-23% at the time of the analyses.
as §2

[10] = Phase 1 single-dose crossover relative bioavailability study of capsule formulations in Healthy Subjects; type: in vivo, humans; settings: 100 mg capsule, oral administration
Procedure: A Phase 1, 2-part, open-label, single-dose, crossover study was conducted to evaluate the relative bioavailability of Compound 1 Malate vs Compound 1 Free base capsule formulations in Healthy Subjects following oral administration.

[11] = Storage of Tartrate Form A-1 at 2-8° C. (XRPD); type: physicochemical; settings: stored at 2-8° C. for 4 weeks

COCCNCc1ccc(-c2cc3nccc(Oc4ccc(NC(=O)C5(C(=O)Nc6ccc(F)cc6)CC5)cc4F)c3s2)nc1 [Compound 1 Malate Form A]
XRPD Results after slurry [1]: Malate Form A + Malate Material B
Absolute Bioavailability (%) (DN AUC [Oral]/DN AUC [IV]) * 100 ([2]; beagle dogs, orally administered): 34.2%
Improvement in oral bioavailability compared to the amorphous of Compound 1 free base plus surfactant ([2]; dogs, in the absence of surfactant): 2 fold
Related Impurities (HPLC): Total impurities ([3]; 2-8° C., 0 month): 0.86%
Related Impurities (HPLC): Total impurities ([3]; 2-8° C., 3 months): 0.87%
Related Impurities (HPLC): Total impurities ([3]; 2-8° C., 6 months): 0.79%
Related Impurities (HPLC): Total impurities ([3]; 2-8° C., 12 months): 0.78%
Related Impurities (HPLC): Total impurities ([3]; 2-8° C., 24 months): 0.80%
Long term stability (in words) ([3]; 24 months storage at 2-8° C. or 25° C./60% RH): stable
Related Impurities (HPLC): Total impurities ([3]; 25° C./60% RH, 0 month): 0.86%
Related Impurities (HPLC): Total impurities ([3]; 25° C./60% RH, 3 months): 0.76%
Related Impurities (HPLC): Total impurities ([3]; 25° C./60% RH, 6 months): 0.83%
Related Impurities (HPLC): Total impurities ([3]; 25° C./60% RH, 12 months): 0.80%
Related Impurities (HPLC): Total impurities ([3]; 25° C./60% RH, 24 months): 0.90%
DVS weight loss, desorption ([4]; 15-5% RH): ~1.7%
DVS weight loss, desorption ([4]; 95-15% RH): approximately 1.3 wt %
DVS weight gain, sorption ([4]; between 5-25% RH): about 2.1 wt %
DVS additional weight gain, sorption ([4]; between 25-95% RH): 1.1 wt %
DVS weight loss upon equilibration at 5% RH ([4]; equilibration at 5% relative humidity): 1.2 wt %
Effect of heating (XRPD) [5]: partial dehydration
Dose reduction achieved when the salt was dosed in patients (vs free base) [6]: 20-30%
Water content (Karl Fischer) ([7]; after the 30% RH stress): 3.7%
Water content, equivalent in mol ([7]; after the 30% RH stress): about 1.5 mol
Water content (Karl Fischer) ([7]; after the 93% RH stress): 5.3%
Water content, equivalent in mol ([7]; after the 93% RH stress): ~2.5 mol
Calculated H2O content (KF, average value from 2 runs) ([7]; ~12% RH at sample preparation): Calculated H2O content: 3.47%
Calculated H2O content (KF, average value from 2 runs) ([7]; ~17-18% RH at sample preparation, ~35 seconds for preparation): Calculated H2O content: 3.73%
Calculated H2O content (KF, average value from 2 runs) ([7]; ~35-36% RH at sample preparation, ~35 seconds for preparation): Calculated H2O content: 5.32%
Long term stability (in words) [8]: stable
XRPD Results after RH stress ([9]; 30% RH, 4 days (~33% ambient RH at sample preparation, glove bag)): Malate Form A, slight peak shifts (c)
XRPD Results after RH stress ([9]; 93% RH, 1 day): Malate Form A,
Relative humidity above which the form is physically stable ([9]; below it a reversible dehydration was seen): above 23 % RH

COCCNCc1ccc(-c2cc3nccc(Oc4ccc(NC(=O)C5(C(=O)Nc6ccc(F)cc6)CC5)cc4F)c3s2)nc1 [Compound 1 Malate, N-(3-fluoro-4-((2-(5-(((2-methoxyethyl)amino)methyl)pyridin-2-yl)thieno[3,2-b]pyridin-7-yl)oxy)phenyl)-N′-(4-fluorophenyl)cyclopropane-1,1-dicarboxamide (S)-2-hydroxysuccinate (1:1)]
Bioequivalence to 120 mg Compound 1 Free base capsule formulation [10]: bioequivalence was achieved

COCCNCc1ccc(-c2cc3nccc(Oc4ccc(NC(=O)C5(C(=O)Nc6ccc(F)cc6)CC5)cc4F)c3s2)nc1 [Compound 1, N-(3-fluoro-4-((2-(5-(((2-methoxyethyl)amino)methyl)pyridin-2-yl)thieno[3,2-b]pyridin-7-yl)oxy)phenyl)-N′-(4-fluorophenyl)cyclopropane-1,1-dicarboxamide]
Long term stability (in words) ([3]; room temperature, drug substance and drug product): poor long term stability

COCCNCc1ccc(-c2cc3nccc(Oc4ccc(NC(=O)C5(C(=O)Nc6ccc(F)cc6)CC5)cc4F)c3s2)nc1 [Tartrate Form A, N-(3-fluoro-4-((2-(5-(((2-methoxyethyl)amino)methyl)pyridin-2-yl)thieno[3,2-b]pyridin-7-yl)oxy)phenyl)-N′-(4-fluorophenyl)cyclopropane-1,1-dicarboxamide (2R,3R)-2,3-dihydroxysuccinate (1:1)]
XRPD Results after storage [11]: Remained
